Assays:
SpCas9:gRNA complex = molecular target: T1, SpCas9:gRNA complex (Streptococcus pyogenes serotype M1, UniProt Q99ZW2); experiment: Bio-Layer Interferometry (BLI) of biotinylated compound with SpCas9:gRNA complex; assay type: binding
T1 construct: His6 (N, cleaved yes); made in house; host or cells: E. coli BL21 Star (DE3)
Experimental: Compound-Cas9 interaction in BLI. The experiments were performed in a 96-well format with 180 μL reaction volume using biotinylated compound BRD7087-Biotin and streptavidin sensors. 1 μM of the biotinylated compound was loaded onto the sensors for 180 s in 20 mM Tris buffer of pH 7.4, 100 mM KCl, 5 mM MgCl2, 1 mM DTT, 0.01% Tween®. The compound loaded sensors were then allowed to associate with the different concentration of SpCas9:gRNA complex (1-0.15 μM) for 300 s followed by dissociation in the reaction buffer. Reference sensor was loaded with compound and allowed to associate and dissociate in the reaction buffer alone. The response curves were fitted with a 2:1 stoichiometric model and a global fit steady-state analysis were performed using manufacturer inbuilt protocol. The experiment was performed in three replicates.
The competitive experiments were performed using Biotin-linker fragment. In this experiment, streptavidin sensors were pre-incubated with 10 μM of Biotin-linker before dipping into a solution of either 1 μM BRD7087-Biotin or reaction buffer alone. Sensors were then allowed to associate with different concentration of SpCas9:gRNA complex or buffer alone.
Compound-Cas9 interaction in BLL The experiments were performed in a 96-well format with 180 μL reaction volume using biotinylated compound BRD7087-Biotin and streptavidin sensors. […]

SpCas9 = SpCas9 (Streptococcus pyogenes serotype M1, UniProt Q99ZW2); experiment: Cas9 nuclease activity in EGFP disruption assay (U2OS.eGFP.PEST cells); assay type: cell-based; set-up: host or cells: U2OS.eGFP-PEST; settings: 10, 15, 20 μM, 24 h
SpCas9, sequence (Q99ZW2 whole entry): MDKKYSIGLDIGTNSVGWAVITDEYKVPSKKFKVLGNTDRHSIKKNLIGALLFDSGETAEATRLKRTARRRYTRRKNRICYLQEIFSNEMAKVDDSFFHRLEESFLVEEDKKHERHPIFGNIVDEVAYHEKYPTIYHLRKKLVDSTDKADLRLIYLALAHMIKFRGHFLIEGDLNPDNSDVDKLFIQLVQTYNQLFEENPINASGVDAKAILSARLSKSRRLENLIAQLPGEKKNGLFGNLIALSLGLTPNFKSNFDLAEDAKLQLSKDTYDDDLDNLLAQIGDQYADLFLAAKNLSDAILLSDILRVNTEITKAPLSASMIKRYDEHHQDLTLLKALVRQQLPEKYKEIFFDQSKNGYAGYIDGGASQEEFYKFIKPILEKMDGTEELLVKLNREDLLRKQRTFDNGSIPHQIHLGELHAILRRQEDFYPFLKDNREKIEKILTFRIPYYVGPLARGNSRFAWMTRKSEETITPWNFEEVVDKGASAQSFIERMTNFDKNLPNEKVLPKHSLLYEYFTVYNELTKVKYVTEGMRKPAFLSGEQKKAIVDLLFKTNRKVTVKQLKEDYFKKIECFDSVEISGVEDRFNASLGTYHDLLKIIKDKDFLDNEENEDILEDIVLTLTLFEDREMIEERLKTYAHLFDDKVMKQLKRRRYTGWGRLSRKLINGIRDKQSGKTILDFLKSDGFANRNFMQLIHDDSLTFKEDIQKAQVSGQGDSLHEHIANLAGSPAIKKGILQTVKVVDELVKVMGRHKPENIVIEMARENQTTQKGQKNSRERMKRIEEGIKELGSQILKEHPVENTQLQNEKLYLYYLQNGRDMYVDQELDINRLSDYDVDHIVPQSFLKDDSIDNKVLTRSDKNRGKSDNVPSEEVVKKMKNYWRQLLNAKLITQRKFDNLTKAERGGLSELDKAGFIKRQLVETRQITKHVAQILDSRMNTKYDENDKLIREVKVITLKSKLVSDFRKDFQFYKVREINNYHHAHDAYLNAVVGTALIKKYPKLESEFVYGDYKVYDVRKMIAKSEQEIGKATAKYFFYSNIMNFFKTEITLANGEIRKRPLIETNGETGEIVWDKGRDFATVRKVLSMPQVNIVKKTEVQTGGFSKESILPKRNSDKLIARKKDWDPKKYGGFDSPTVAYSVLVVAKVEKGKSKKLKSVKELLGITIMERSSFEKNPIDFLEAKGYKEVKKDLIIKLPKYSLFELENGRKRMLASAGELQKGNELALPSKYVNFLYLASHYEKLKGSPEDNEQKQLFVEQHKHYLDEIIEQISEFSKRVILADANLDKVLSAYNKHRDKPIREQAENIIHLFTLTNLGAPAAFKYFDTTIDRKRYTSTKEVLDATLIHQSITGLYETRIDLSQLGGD
Experimental: (§1) Cas9 Nuclease activity in EGFP disruption assay. Approximately 200,000 U2OS.eGFP-PEST cells were nucleofected with 400 ng of SpCas9 (Addgene Plasmid #43861) and 40 ng of sgRNA (pFYF1320 EGFP Site #1, Addgene Plasmid #47511) expressing plasmids along with a Td-tomato-encoding plasmid using the SE Cell Line 4D-Nucleofector™ X Kit (Lonza) according to the manufacturer's protocol. Approximately 20,000 transfected cells/well in 3 replicates were plated in a 96-well plate (Corning® 3904). Cells were allowed to grow in the indicated amount of compound or DMSO for 24 h post transfection. Cells were then fixed using 4% paraformaldehyde and imaged with the HCS NuclearMask™ Blue Stain (Life Technologies) as the nuclear counter-staining agent. Imaging was performed with an IXM 137204 ImageXpress Automated High Content Microscope (Molecular Devices) at 10× magnification under three excitation channels (blue, green and red) with 9 acquiring sites per well. Images were analyzed in the MetaXpress software and data were plotted using GraphPad Prism 6. The Z′-value was calculated following the formula: […]
Cas9 Nuclease activity in EGFP disruption assay. In some embodiments, a quantitative human cell-based reporter assay that enables rapid quantitation of targeted nuclease activities is used to characterize off-target cleavage of CRISPR protein-based RNA guided endonucleases. In this assay, the activities of nucleases targeted to a single integrated EGFP reporter gene can be quantified by assessing loss of fluorescence signal in human U2OS.EGFP cells caused by inactivating frameshift insertion/deletion (indel) mutations introduced by error prone non-homologous end-joining (NHEJ) repair of nuclease-induced double-stranded breaks (DSBs).
as §1, with “Approximately” for “Cas9 Nuclease activity in EGFP disruption assay. Approximately”

T1 sequence (Q99ZW2 whole entry, one chain of several): as the sequence (Q99ZW2 whole entry) above

Row | Compound | Kd (SpCas9:gRNA complex; 1 μM BRD7087-Biotin on streptavidin sensors, SpCas9:gRNA 1-0.15 μM, read-out: dissociation constant (2:1 compound to Cas9 binding isotherm)) [nM] | BLI response signal in competitive experiment (SpCas9:gRNA complex; excess (10×) of biotin to compound loading) | potency of stereoisomers in EGFP-disruption assay compared with the parent (3aR,4S,9bR) compound (SpCas9)
1 | O=C(CCCC[C@@H]1SC[C@@H]2NC(=O)N[C@@H]21)NCCOCCOCCOCCC(=O)Nc1cccc(-c2ccc3c(c2)[C@H]2[C@H](CCN2Cc2ccncc2)[C@@H](CO)N3)c1 [biotin-conjugate of BRD7087, N-(2-(2-(2-(3-((3-((3aR,4S,9bR)-4-(Hydroxymethyl)-1-(pyridin-4-ylmethyl)-2,3,3a,4,5,9b-hexahydro-1H-pyrrolo[3,2-c]quinolin-8-yl)phenyl)amino)-3-oxopropoxy)ethoxy)ethoxy)ethyl)-5-((3aS,4S,6aR)-2-oxohexahydro-1H-thieno[3,4-d]imidazol-4-yl)pentanamide] | ~160 | no substantial response signal | –
2 | OC[C@@H]1Nc2ccc(-c3cccc(F)c3)cc2[C@@H]2[C@H]1CCN2Cc1ccncc1 [BRD5039, ((3aS,4R,9bS)-8-(3-Fluorophenyl)-1-(pyridin-4-ylmethyl)-2,3,3a,4,5,9b-hexahydro-1H-pyrrolo[3,2-c]quinolin-4-yl)methanol] | – | – | equipotent as BRD7087
3 | OC[C@H]1Nc2ccc(-c3cccc(F)c3)cc2[C@@H]2[C@H]1CCN2Cc1ccncc1 [BRD0750, ((3aS,4S,9bS)-8-(3-Fluorophenyl)-1-(pyridin-4-ylmethyl)-2,3,3a,4,5,9b-hexahydro-1H-pyrrolo[3,2-c]quinolin-4-yl)methanol] | – | – | less potent
4 | OC[C@@H]1Nc2ccc(-c3cccc(F)c3)cc2[C@H]2[C@@H]1CCN2Cc1ccncc1 [BRD2161, ((3aR,4R,9bR)-8-(3-Fluorophenyl)-1-(pyridin-4-ylmethyl)-2,3,3a,4,5,9b-hexahydro-1H-pyrrolo[3,2-c]quinolin-4-yl)methanol] | – | – | less potent
